Assay results as given in patent publication US10329324B2 (viDA Therapeutics Inc., priority 2013, dated 2019).

molecular target: T1, human Granzyme B (hGzmB) (Homo sapiens, UniProt P10144); assay: Human Granzyme B enzymatic inhibition assay (fluorogenic, kinetic); assay type: biochemical; conditions: activity codes, Table 7; read-out: IC50 Activity Range
T1 construct: purchased Froelich Lab, Northshore University Health Systems Research Institute, Evanston, Ill., USA
Protocol: A specific 2× assay buffer was prepared for the enzyme to be tested (see Table 2 for final 1× assay buffer compositions). If the assay buffer included DTT, it was added immediately prior to running the assay. A 2× enzyme mix was prepared (see Table 3 for enzyme assay conditions) at 80 uL per well. Compounds were screened at one or two appropriate concentrations (to determine the percent inhibition at those concentrations) and/or a full dose response curve (typically 8 points, to identify the IC50) in duplicate, triplicate, or higher replicates as needed. An appropriate control was also assessed in full dose response, in duplicate for each assay/plate. Background control wells consisted of 1× assay buffer, DMSO (5% v/v) and substrate. Positive control wells consisted of enzyme, DMSO (5% v/v) and substrate. Test compounds and control compounds were diluted in DMSO to […] the final desired concentration. For example, a test compound may be tested in dose response, in serial, tripling dilution condition starting at 20 uM and ending at 9.1 nM (or any appropriate concentration range and dilution scheme). Control compounds were prepared similarly. Diluted compounds were prepared in a dilution plate and transferred to the reaction plate (96-well medium binding plate (Greiner Bio-One FLUOTRAC™)) to allow for the desired final concentrations when added to the enzyme with AB. After mixing, the reaction plate was placed on a shaker (at 300 RPM) for 5 min, followed by incubation (covered) on the bench, for 20 min. Plates were warmed to reaction temperature (see Table 3) for a total incubation time of 30 min. Plates so prepared were ready for addition of substrate and the subsequent reaction.
(§1) An appropriate substrate for each assay was prepared in advance at 2× the final desired concentration (see Table 2) in DMSO. The appropriate substrate mix was added to each appropriate well on the reaction plate, and the plate was read immediately in the TECAN plate reader (TECAN INFINITE® M1000 Pro), set to the correct wavelength as needed for each assay (see Table 3) using 25 cycles, kinetic interval of 1 min, number of reads per well of 20 with shaking set to 1 s, double orbital, 2 mm amplitude. For fluorescent assays the gain was set to optimal (50%).
An in vitro fluorogenic detection assay for assessing the IC50 and/or percent inhibition at a given concentration of inhibitors against human Granzyme B (hGzmB) enzyme was performed as described in Example D1. When appropriate, percent inhibition data was collected and fitted to generate IC50 data using GraphPad Prism 5 (GraphPad Software, La Jolla Calif. USA, www.graphpad.com) and its non-linear regression analysis tools or other equivalent tools. […]
as §1, with “5)” for “2)”, “assay buffer. 30 uL of the” for “DMSO. The”, “6)” for “3)”, “15” for “25”, “(100% with gain regulation) for all assays except human GzmB which was set to 85 (with the z set at 23000 um).” for “(50%).”
An in vitro fluorogenic detection assay for assessing the IC50 and/or percent inhibition at a given concentration of inhibitors against human Granzyme B (hGzmB) enzyme was performed as described in Example D5. When appropriate, percent inhibition data was collected and fitted to generate IC50 data using GraphPad Prism 5 (GraphPad Software, La Jolla Calif. USA, www.graphpad.com) and its non-linear regression analysis tools or other equivalent tools.

T1 sequence (P10144 21-247): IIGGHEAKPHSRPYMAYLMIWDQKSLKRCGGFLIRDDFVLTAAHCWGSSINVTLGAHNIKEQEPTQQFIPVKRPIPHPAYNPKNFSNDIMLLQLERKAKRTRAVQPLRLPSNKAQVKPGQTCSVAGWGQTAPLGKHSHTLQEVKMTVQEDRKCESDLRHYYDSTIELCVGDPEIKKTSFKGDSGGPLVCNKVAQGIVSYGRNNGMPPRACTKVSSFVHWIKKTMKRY

Structure (SMILES)	IC50 [µM]
C[C@@H](OC(C)(C)C)[C@H](NC(=O)Cc1ccccc1)C(=O)NCC(=O)N1c2ccccc2C[C@H]1C(=O)NCc1nn[nH]n1 [Example C9, (2S)-1-{2-[(2S,3R)-3-(Tert-Butoxy)-2-(2-Phenylacetamido)Butanamido]Acetyl}-N-(2H-1,2,3,4-Tetrazol-5-Ylmethyl)-2,3-Dihydro-1H-Indole-2-Carboxamide]	> 10
C[C@H](OC(C)(C)C)[C@H](NC(=O)Cc1ccccc1)C(=O)NCC(=O)N1c2ccccc2C[C@H]1C(=O)NCc1nn[nH]n1 [Example C10, (2S)-1-{2-[(2S,3S)-3-(Tert-Butoxy)-2-(2-Phenylacetamido)Butanamido]Acetyl}-N-(2H-1,2,3,4-Tetrazol-5-Ylmethyl)-2,3-Dihydro-1H-Indole-2-Carboxamide]	> 10
CC[C@H](C)[C@H](NC(=O)Cc1ccccc1)C(=O)N[C@@H](CC(=O)O)C(=O)N1c2ccccc2C[C@H]1C(=O)NCc1nn[nH]n1 [Example C14]	1 to 10
CC[C@H](C)[C@H](NC(=O)Cc1ccccc1)C(=O)N[C@H](CC(=O)O)C(=O)N1c2ccccc2C[C@H]1C(=O)NCc1nn[nH]n1 [Example C15, (3R)-3-[(2S,3S)-3-Methyl-2-(2-Phenylacetamido)Pentanamido]-4-Oxo-4-[(2S)-2-[(2H-1,2,3,4-Tetrazol-5-Ylmethyl)Carbamoyl]-2,3-Dihydro-1H-Indol-1-Yl]Butanoic Acid]	1 to 10
CC[C@H](C)[C@H](NC(=O)Cc1ccccc1)C(=O)N[C@@H](CCCC(=O)O)C(=O)N1c2ccccc2C[C@H]1C(=O)NCc1nn[nH]n1 [Example C17, (5S)-5-[(2S,3S)-3-Methyl-2-(2-Phenylacetamido)Pentanamido]-6-Oxo-6-[(2S)-2-[(2H-1,2,3,4-Tetrazol-5-Ylmethyl)Carbamoyl]-2,3-Dihydro-1H-Indol-1-Yl]Hexanoic Acid]	1 to 10
CC[C@H](C)[C@H](NC(=O)Cc1ccccc1)C(=O)N[C@@H](CCCCN)C(=O)N1c2ccccc2C[C@H]1C(=O)NCc1nn[nH]n1 [Example C18, (2S)-1-[(2S)-6-Amino-2-[(2S,3S)-3-Methyl-2-(2-Phenylacetamido)Pentanamido]Hexanoyl]-N-(2H-1,2,3,4-Tetrazol-5-Ylmethyl)-2,3-Dihydro-1H-Indole-2-Carboxamide]	> 10
CC[C@H](C)[C@H](NC(=O)Cc1ccccc1)C(=O)NCC(=O)N1c2cc(NC(=O)OC(C)(C)C)ccc2C[C@H]1C(=O)NCc1nn[nH]n1 [Example C19, Tert-Butyl N-[(2S)-1-{2-[(2S,3S)-3-Methyl-2-(2-Phenylacetamido)Pentanamido]Acetyl}-2-[(2H-1,2,3,4-Tetrazol-5-Ylmethyl)Carbamoyl]-2,3-Dihydro-1H-Indol-6-Yl]Carbamate]	0.1 to 1
CC[C@H](C)[C@H](NC(=O)Cc1ccccc1)C(=O)NCC(=O)N1c2cc(NCc3ccccc3)ccc2C[C@H]1C(=O)NCc1nn[nH]n1 [Example C21, (2S)-6-(Benzylamino)-1-{2-[(2S,3S)-3-Methyl-2-(2-Phenylacetamido)Pentanamido]Acetyl}-N-(2H-1,2,3,4-Tetrazol-5-Ylmethyl)-2,3-Dihydro-1H-Indole-2-Carboxamide]	> 10
CC[C@H](C)[C@H](NC(=O)Cc1ccccc1)C(=O)NCC(=O)N1c2c(cccc2NC(C)=O)C[C@H]1C(=O)NCc1nn[nH]n1 [Example C30, (2S)-7-Acetamido-1-{2-[(2S,3S)-3-Methyl-2-(2-Phenylacetamido)Pentanamido]Acetyl}-N-(2H-1,2,3,4-Tetrazol-5-Ylmethyl)-2,3-Dihydro-1H-Indole-2-Carboxamide]	> 10
CC[C@H](C)[C@H](NC(=O)Cc1ccccc1)C(=O)NCC(=O)N1c2ccc(NC(=O)OC(C)(C)C)cc2C[C@H]1C(=O)NCc1nn[nH]n1 [Example C31, Tert-Butyl N-[(2S)-1-{2-[(2S,3S)-3-Methyl-2-(2-Phenylacetamido)Pentanamido]Acetyl}-2-[(2H-1,2,3,4-Tetrazol-5-Ylmethyl)Carbamoyl]-2,3-Dihydro-1H-Indol-5-Yl]Carbamate]	0.1 to 1
CC[C@H](C)[C@H](NC(=O)Cc1ccccc1)C(=O)NCC(=O)N1c2ccc(NC(C)(C)C)cc2C[C@H]1C(=O)NCc1nn[nH]n1 [Example C33, (2S)-5-(Tert-Butylamino)-1-{2-[(2S,3S)-3-Methyl-2-(2-Phenylacetamido)Pentanamido]Acetyl}-N-(2H-1,2,3,4-Tetrazol-5-Ylmethyl)-2,3-Dihydro-1H-Indole-2-Carboxamide]	> 10
CC[C@H](C)[C@H](NC(=O)Cc1ccccc1)C(=O)NCC(=O)N1c2ccc([N+](C)(C)C)cc2C[C@H]1C(=O)NCc1nn[nH]n1 [Example C34, (2S)—N,N,N-Trimethyl-1-{2-[(2S,3S)-3-Methyl-2-(2-Phenylacetamido)Pentanamido]Acetyl}-2-[(2H-1,2,3,4-Tetrazol-5-Ylmethyl)Carbamoyl]-2,3-Dihydro-1H-Indol-5-Aminium Iodide]	> 10
CC[C@H](C)[C@H](NC(=O)Cc1ccccc1)C(=O)NCC(=O)N1c2ccc(NCc3ccccc3)cc2C[C@H]1C(=O)NCc1nn[nH]n1 [Example C35]	> 10

Other lines, results leading:

IC50 [µM]	Structure (SMILES)
0.1 to 1	CC[C@H](C)[C@H](NC(=O)Cc1ccccc1)C(=O)N[C@H](CCC(=O)O)C(=O)N1c2ccccc2C[C@H]1C(=O)NCc1nn[nH]n1 [Example C16, (4R)-4-[(2S,3S)-3-Methyl-2-(2-Phenylacetamido)Pentanamido]-5-Oxo-5-[(2S)-2-[(2H-1,2,3,4-Tetrazol-5-Ylmethyl)Carbamoyl]-2,3-Dihydro-1H-Indol-1-Yl]Pentanoic Acid]
1 to 10	O=C(O)CCC(=O)N[C@H](C(=O)NCC(=O)N1c2ccccc2C[C@H]1C(=O)NCc1nn[nH]n1)c1ccsc1 [Example C23, 3-{[(S)-({2-Oxo-2-[(2S)-2-[(2H-1,2,3,4-Tetrazol-5-Ylmethyl)Carbamoyl]-2,3-Dihydro-1H-Indol-1-Yl]Ethyl}Carbamoyl)(Thiophen-3-Yl)Methyl]Carbamoyl}Propanoic Acid]
1 to 10	O=C(O)CCC(=O)N1CCCC[C@H]1C(=O)NCC(=O)N1c2ccccc2C[C@H]1C(=O)NCc1nn[nH]n1 [Example C25, 4-Oxo-4-[(2S)-2-({2-Oxo-2-[(2S)-2-[(2H-1,2,3,4-Tetrazol-5-Ylmethyl)Carbamoyl]-2,3-Dihydro-1H-Indol-1-Yl]Ethyl}Carbamoyl)Piperidin-1-Yl]Butanoic Acid]
> 10	CC[C@H](C)[C@H](Nc1ncccn1)C(=O)NCC(=O)N1c2ccccc2C[C@H]1C(=O)NCc1nn[nH]n1 [Example C26, (2S)-1-{2-[(2S,3S)-3-Methyl-2-[(Pyrimidin-2-Yl)Amino]Pentanamido]Acetyl}-N-(2H-1,2,3,4-Tetrazol-5-Ylmethyl)-2,3-Dihydro-1H-Indole-2-Carboxamide]
> 10	O=C(O)CCC(=O)N1CCC[C@H]1C(=O)NCC(=O)N1c2ccccc2C[C@H]1C(=O)NCc1nn[nH]n1 [Example C28, 4-Oxo-4-[(2S)-2-({2-Oxo-2-[(2S)-2-[(2H-1,2,3,4-Tetrazol-5-Ylmethyl)Carbamoyl]-2,3-Dihydro-1H-Indol-1-Yl]Ethyl}Carbamoyl)Pyrrolidin-1-Yl]Butanoic Acid]
> 10	O=C(O)CCC(=O)NC1(C(=O)NCC(=O)N2c3ccccc3C[C@H]2C(=O)NCc2nn[nH]n2)CCCC1 [Example C29, 3-{[1-({2-Oxo-2-[(2S)-2-[(2H-1,2,3,4-Tetrazol-5-Ylmethyl)Carbamoyl]-2,3-Dihydro-1H-Indol-1-Yl]Ethyl}Carbamoyl)Cyclopentyl]Carbamoyl}Propanoic Acid]
0.1 to 1	O=C(O)CCC(=O)N[C@H](C(=O)NCC(=O)N1c2ccccc2C[C@H]1C(=O)NCc1nn[nH]n1)c1ccccc1 [Example C38, 3-{[(S)-({2-Oxo-2-[(2S)-2-[(2H-1,2,3,4-Tetrazol-5-Ylmethyl)Carbamoyl]-2,3-Dihydro-1H-Indol-1-Yl]Ethyl}Carbamoyl)(Phenyl)Methyl]Carbamoyl}Propanoic Acid]
